Results from US20240366543A1, “METHODS OF TREATING METHYLMALONIC ACIDEMIA AND PROPIONIC ACIDEMIA” (HemoShear Therapeutics, Inc., priority 2021, published 2024).

Assay: Phase 2 study preliminary plasma pharmacokinetics in PA/MMA subjects
Format: in vivo, human
Conditions: dose range of 1 mg/kg to 30 mg/kg, once or twice daily
Protocol: Part A is the dose escalation phase to assess the initial safety and to confirm the pharmacologic activity of Compound 5 in subjects with PA and MMA. Screening for eligibility took place within 28 days of enrollment. All subjects were initially evaluated during a 4-week run-in period followed by within-subject dose escalation of 3 doses (1, 3, and 10 mg/kg QD of sodium 2,2-dimethylbutanoate); dose escalation interval of 4 weeks) to check for improvement in disease-related biomarkers.
Plasma will be analyzed by liquid chromatography with tandem mass spectrometry (LC-MS/MS) with a lower limit of quantitation of 0.100 μg/mL. Samples collected for analyses of Compound 5 (plasma/serum/whole blood)] concentration may also be used to evaluate safety or efficacy aspects related to concerns arising during or after the study.
Preliminary pharmacokinetics (PK) data from the first two subjects of Study described in Examples 7-8 was evaluated at 1 mg/kg, 3 mg/kg and 10 mg/kg of Compound 5 dosed once daily (QD).

Blood plasma concentrations versus dose: dose proportional
SMILES: CCC(C)(C)C(=O)[O-].[Na+] [Compound 5A, 2,2-dimethylbutyric acid sodium salt]
